≈ marks a conversion by molar mass, not a printed value.
What was measured:
Human C5 [1] = molecular target: T1, Human C5 (Homo sapiens, UniProt P01031); experiment: Red blood cell (RBC) hemolysis assay, luminescent (Example 24, Table 29); type: cell-based; details: sheep EA cells, […] C5-depleted human serum, 0.5 nM human C5, 1 hour at 37° C., luminescence (Table 29)
T1 construct: purchased Complement Technology
Source text: Numbers in parenthesis following the compound number indicate alternate enantiomers (as distinguished by retention time during chromatographical separation).

Human C5 [2] = molecular target: T1, Human C5; experiment: Red blood cell (RBC) hemolysis assay, luminescent (Example 13, Table 22); type: cell-based; details: sheep EA cells, […] C5-depleted human serum, 0.5 nM human C5, 1 hour 37° C., luminescence; further: 1.5% C5-depleted human serum
Source text: (§1) Compound CU0136 is a racemic mixture of Compound CU0186 and CU0187. Numbers in parenthesis following compound numbers indicate alternate enantiomers (as distinguished by retention time during chromatographical separation).

[3] = Kinetic solubility in PBS pH 7.4, HPLC-UV (Example 21, Table 27); type: physicochemical; details: phosphate buffered saline, aqueous buffer, kinetic from dmso stock, 0.5 M PBS, shaken minimum 24 h at approximately 25° C., HPLC-UV 270 nm
In short: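 10 mM DMSO stock diluted into 0.05 M PBS pH 7.4 (5% DMSO final), in triplicate, shaken ≥24 h at ~25 °C, then filtered by centrifugation. Supernatant concentration by HPLC-UV at 270 nm against external DMSO standards (15.6–500.0 μM).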

[4] = molecular target: human C5 complement protein (Homo sapiens, UniProt P01031); experiment: Surface plasmon resonance (SPR), immobilized human C5, 37° C. (Example 12, Table 21); type: binding; details: where a range of compound concentrations were analyzed, the lowest value obtained
Sequence of human C5 complement protein (P01031 19-1676): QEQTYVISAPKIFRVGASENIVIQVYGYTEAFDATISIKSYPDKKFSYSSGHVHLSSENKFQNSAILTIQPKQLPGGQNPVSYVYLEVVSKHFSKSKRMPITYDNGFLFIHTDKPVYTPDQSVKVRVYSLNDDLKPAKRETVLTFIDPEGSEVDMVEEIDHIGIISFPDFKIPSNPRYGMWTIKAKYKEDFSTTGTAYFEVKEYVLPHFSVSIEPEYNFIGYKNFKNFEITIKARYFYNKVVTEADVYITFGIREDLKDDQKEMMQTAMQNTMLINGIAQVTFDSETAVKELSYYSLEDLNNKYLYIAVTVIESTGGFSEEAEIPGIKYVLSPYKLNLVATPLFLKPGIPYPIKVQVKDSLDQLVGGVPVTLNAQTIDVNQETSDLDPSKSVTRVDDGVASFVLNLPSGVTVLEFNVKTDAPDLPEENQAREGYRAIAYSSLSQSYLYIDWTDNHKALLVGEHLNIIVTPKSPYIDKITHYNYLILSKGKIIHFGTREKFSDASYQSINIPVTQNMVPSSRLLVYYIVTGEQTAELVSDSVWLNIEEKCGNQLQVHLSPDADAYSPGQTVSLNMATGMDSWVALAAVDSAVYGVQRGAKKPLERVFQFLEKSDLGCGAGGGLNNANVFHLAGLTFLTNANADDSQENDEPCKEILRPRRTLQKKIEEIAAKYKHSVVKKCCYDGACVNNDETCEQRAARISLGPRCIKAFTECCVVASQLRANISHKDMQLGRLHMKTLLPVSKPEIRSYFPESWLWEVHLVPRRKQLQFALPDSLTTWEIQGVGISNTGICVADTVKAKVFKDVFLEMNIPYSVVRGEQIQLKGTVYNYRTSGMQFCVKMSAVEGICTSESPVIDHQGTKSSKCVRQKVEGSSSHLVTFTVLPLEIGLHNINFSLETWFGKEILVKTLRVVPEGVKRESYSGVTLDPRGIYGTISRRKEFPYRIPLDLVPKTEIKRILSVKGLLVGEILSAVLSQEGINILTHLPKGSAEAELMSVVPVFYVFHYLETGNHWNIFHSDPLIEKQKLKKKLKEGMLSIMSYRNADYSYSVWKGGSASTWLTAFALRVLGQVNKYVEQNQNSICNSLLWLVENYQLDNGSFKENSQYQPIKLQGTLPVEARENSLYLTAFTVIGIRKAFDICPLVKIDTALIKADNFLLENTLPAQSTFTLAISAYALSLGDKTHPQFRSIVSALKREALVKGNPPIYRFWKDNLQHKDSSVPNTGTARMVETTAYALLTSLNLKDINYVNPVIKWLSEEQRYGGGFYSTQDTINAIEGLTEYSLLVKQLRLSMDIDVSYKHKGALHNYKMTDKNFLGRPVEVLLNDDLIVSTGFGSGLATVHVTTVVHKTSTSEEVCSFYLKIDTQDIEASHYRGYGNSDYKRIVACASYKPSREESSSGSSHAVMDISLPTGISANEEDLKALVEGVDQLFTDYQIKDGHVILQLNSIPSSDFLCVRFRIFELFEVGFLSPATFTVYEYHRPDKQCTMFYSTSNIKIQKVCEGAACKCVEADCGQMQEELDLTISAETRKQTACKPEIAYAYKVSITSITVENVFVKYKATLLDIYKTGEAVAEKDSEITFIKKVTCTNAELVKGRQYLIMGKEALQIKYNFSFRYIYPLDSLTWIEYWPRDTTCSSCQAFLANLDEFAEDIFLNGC
Source text: as §1

T1 sequence (P01031 19-1676): as above

solubility kinetic [3] | Kd [4] | Compound | IC50 (Human C5 [1]) | IC50 (Human C5 [2])
– | – | CCCCCOc1cc(N2CC(CO)CN(Cc3cc(F)ccc3OC)C2=O)ccc1OC (stereo not shown) [SC0016(2)] | 12.8 nM | –
427 µM (≈ 249 µg/mL) | 1.9 nM | CCCCCOc1cc(N2CCCN(Cc3ccc(CC(=O)N4CCOC(COC)C4)cc3OC)C2=O)ccc1OC (stereo not shown) [CU0105] | – | 130 nM
– | – | CCCCCOc1cc(N2CC(C)CN(Cc3cc(F)ccc3OC)C2=O)ccc1OC (stereo not shown) [SC0018] | 44.7 nM | –
– | – | CCCCCOc1cc(N2CC(COCC(=O)NCCOC)CN(Cc3cc(F)ccc3OC)C2=O)ccc1OC (stereo not shown) [SC0037] | 124 nM | –
– | – | CCCCCOc1cc(N2CC[C@H](C)N(Cc3cccc4c3ccn4Cc3cccnc3)C2=O)ccc1OC [SC0013] | 46.7 nM | –
– | – | CCCCCOc1cc(N2CC(COCc3ccncn3)CN(Cc3cc(F)ccc3OC)C2=O)ccc1OC (stereo not shown) [SC0023] | 111 nM | –
– | – | CCCCCOc1cc(N2CC(O)(CO)CN(Cc3cc(F)ccc3OC)C2=O)ccc1OC (stereo not shown) [SC0022] | 140 nM | –
– | – | CCCCCOc1cc(N2CC(Cn3cc4ccccc4n3)CN(Cc3cc(F)ccc3OC)C2=O)ccc1OC (stereo not shown) [SC0041] | 251 nM | –
– | – | CCCCCOc1cc(N2CC(C(=O)N3CCS(=O)(=O)C3)CN(Cc3cc(F)ccc3OC)C2=O)ccc1OC (stereo not shown) [SC0045] | 24.3 nM | –
– | – | CCCCCOc1cc(N2CC(C(=O)N(C)C)CN(Cc3cc(F)ccc3OC)C2=O)ccc1OC (stereo not shown) [SC0048] | 52.3 nM | –
– | – | CCCCCOc1cc(N2CC[C@H](C)N(Cc3cccc4c3ccn4CC(=O)N3CCOCC3)C2=O)ccc1OC [SC0012] | 28.5 nM | –
– | – | CCCCCOc1cc(N2CC[C@@H](C)N(Cc3cccc4c3ccn4CC(=O)N(C)C)C2=O)ccc1OC [SC0014] | 146 nM | –
– | – | CCCCCOc1cc(N2CC[C@H](C)N(Cc3cccc4[nH]ccc34)C2=O)ccc1OC [SC0010] | 24.7 nM | –
– | – | CCCCCOc1cc(N2CC[C@H](C)N(Cc3cccc4c3ccn4CC(=O)N3CCCOCC3)C2=O)ccc1OC [SC0004] | 10.5 nM | –
– | – | CCCCCOc1cc(N2CC(Cn3ncc4ccccc43)CN(Cc3cc(F)ccc3OC)C2=O)ccc1OC (stereo not shown) [SC0043] | 337 nM | –
– | – | CCCCCOc1cc(N2CC(COCC(=O)N3CCOCC3)CN(Cc3cc(F)ccc3OC)C2=O)ccc1OC (stereo not shown) [SC0029] | 84.5 nM | –
– | – | CCCCCOc1cc(N2CC(CNC(=O)c3ccccn3)CN(Cc3cc(F)ccc3OC)C2=O)ccc1OC (stereo not shown) [SC0054] | 34.8 nM | –
< 10 µM | 1.3 nM | CCCCCOc1cc(N2CCCN(Cc3cccc4c3c(F)cn4CC(=O)N(C)C)C2=O)ccc1OC [CU0232] | – | 21.6 nM
404 µM (≈ 206 µg/mL) | 4.2 nM | CCCCCOc1cc(N2CCCN(Cc3ccc(CCN4CCCC4)cc3OC)C2=O)ccc1OC [CU0123] | – | 17.1 nM
– | – | CCCCCOc1cc(N2CC[C@@H](C)N(Cc3ccnc4[nH]ccc34)C2=O)ccc1OC [SC0015] | 222 nM | –
– | – | CCCCCOc1cc(N2CC(CO)CN(Cc3cc(F)ccc3OC)C2=O)ccc1OC (stereo not shown) [SC0016(1)] | 8.4 nM | –
– | – | CCCCCOc1cc(N2CC[C@H](C)N(Cc3cccc4c3ccn4CC(=O)N3CCOC(COC)C3)C2=O)ccc1OC (stereo partly shown) [SC0005] | 11.2 nM | –
– | – | CCCCCOc1cc(N2CC(C(=O)N(C)CCO)CN(Cc3cc(F)ccc3OC)C2=O)ccc1OC (stereo not shown) [SC0049] | 68.1 nM | –

solubility kinetic [3] | Kd [4] | Compound | IC50 (Human C5 [1]) | IC50 (Human C5 [2])
– | – | CCCCCOc1cc(N2CC(Cn3cncn3)CN(Cc3cc(F)ccc3OC)C2=O)ccc1OC (stereo not shown) [SC0035] | 122 nM | –
– | – | CCCCCOc1cc(N2CC(Cn3cccn3)CN(Cc3cc(F)ccc3OC)C2=O)ccc1OC (stereo not shown) [SC0033] | 101 nM | –
– | – | CCCCCOc1cc(N2CC(C)CN(Cc3ccc(CC(=O)O)cc3OC)C2=O)ccc1OC (stereo not shown) [SC0019] | 55.9 nM | –
453 µM (≈ 259 µg/mL) | 2 nM | CCCCCOc1cc(N2CCCN(Cc3ccc(CC(=O)N[C@H]4CN(C)C[C@H]4F)cc3OC)C2=O)ccc1OC [CU0106] | – | 43.9 nM
– | – | CCCCCOc1cc(N2CC(COCC(=O)N(C)CCO)CN(Cc3cc(F)ccc3OC)C2=O)ccc1OC (stereo not shown) [SC0026] | 59.7 nM | –
– | – | CCCCCOc1cc(N2CC(CNC(=O)c3cnco3)CN(Cc3cc(F)ccc3OC)C2=O)ccc1OC (stereo not shown) [SC0053] | 24.2 nM | –
– | – | CCCCCOc1cc(N2C[C@H](C)CN(Cc3cc(F)ccc3OC)C2=O)ccc1OC [SC0020] | 66.8 nM | –
– | – | CCCCCOc1cc(N2CC(CNC(=O)C(F)(F)F)CN(Cc3cc(F)ccc3OC)C2=O)ccc1OC (stereo not shown) [SC0036] | 122 nM | –
– | – | CCCCCOc1cc(N2CC(Cn3cc(CO)nn3)CN(Cc3cc(F)ccc3OC)C2=O)ccc1OC (stereo not shown) [SC0040] | 208 nM | –
– | – | CCCCCOc1cc(N2CC[C@H](C)N(Cc3cccc4c3ccn4CC(=O)N3CCNC(=O)C3)C2=O)ccc1OC [SC0003] | 9.9 nM | –
– | – | CCCCCOc1cc(N2CC(O)CN(Cc3cc(F)ccc3OC)C2=O)ccc1OC (stereo not shown) [SC0058] | 50.8 nM | –
– | – | CCCCCOc1cc(N2CC(CNC(=O)C(=O)N(C)C)CN(Cc3cc(F)ccc3OC)C2=O)ccc1OC (stereo not shown) [SC0055] | 38.2 nM | –
– | – | CCCCCOc1cc(N2CC(COCC(=O)O)CN(Cc3cc(F)ccc3OC)C2=O)ccc1OC (stereo not shown) [SC0024] | 59.3 nM | –
– | – | CCCCCOc1cc(N2CC(CO)CN(Cc3ccc(Br)cc3OC)C2=O)ccc1OC (stereo not shown) [SC0027] | 65.1 nM | –
– | – | CCCCCOc1cc(N2CC(C(=O)O)CN(Cc3cc(F)ccc3OC)C2=O)ccc1OC (stereo not shown) [SC0059] | 57.7 nM | –
– | – | CCCCCOc1cc(N2CC(C(=O)NC)CN(Cc3cc(F)ccc3OC)C2=O)ccc1OC (stereo not shown) [SC0046] | 33 nM | –
– | – | CCCCCOc1cc(N2CC3(CC3)CN(Cc3ccnc4c3ccn4CC(=O)N(C)C)C2=O)ccc1OC [SC0065] | 39 nM | –
– | – | CCCCCOc1cc(N2CC3(COC3)CN(Cc3ccnc4c3ccn4CC(=O)N(C)C)C2=O)ccc1OC [SC0069] | 129 nM | –
– | – | CCCCCOc1cc(N2CC3(CNC3)CN(Cc3cc(F)ccc3OC)C2=O)ccc1OC [SC0070] | 398 nM | –
– | – | CCCCCOc1cc(N2CC(C(=O)N3CCOCC3)CN(Cc3cc(F)ccc3OC)C2=O)ccc1OC (stereo not shown) [SC0051] | 111 nM | –
– | – | C=C1CN(Cc2ccc(Br)cc2OC)C(=O)N(c2ccc(OC)c(OCCCCC)c2)C1 [SC0062] | 173 nM | –
– | – | CCCCCOc1cc(N2CC(CN)CN(Cc3cc(F)ccc3OC)C2=O)ccc1OC (stereo not shown) [SC0034] | 115 nM | –
– | – | CCCCCOc1cc(N2CC(C(=O)Nc3ncco3)CN(Cc3cc(F)ccc3OC)C2=O)ccc1OC (stereo not shown) [SC0050] | 76.2 nM | –

solubility kinetic [3] | Kd [4] | Compound | IC50 (Human C5 [1]) | IC50 (Human C5 [2])
– | – | CCCCCOc1cc(N2CC(COCC(N)=O)CN(Cc3cc(F)ccc3OC)C2=O)ccc1OC (stereo not shown) [SC0028] | 53.7 nM | –
– | – | CCCCCOc1cc(N2C(=O)CN(Cc3cc(F)ccc3OC)C2=O)ccc1OC [SC0063] | 985 nM | –
– | – | CCCCCOc1cc(N2CC[C@H](C)N(Cc3cccc4c3ccn4CC(=O)NC3CC(O)C3)C2=O)ccc1OC (stereo partly shown) [SC0006] | 11.2 nM | –
– | – | CCCCCOc1cc(N2C[C@@H](C)CN(Cc3cc(F)ccc3OC)C2=O)ccc1OC [SC0021] | 71.5 nM | –
– | 16.5 nM | CCCCCOc1cc(N2CCCN(Cc3ccnc4c3ccn4CC(=O)N3CCOCC3)C2=O)ccc1OC [CU0043] | – | 29.5 nM
– | 394 nM | CCCCCOc1cc(N2CCN(Cc3cccc4c3OCO4)C2=O)ccc1OC [CU0064] | – | 799 nM
– | 2.6 nM | CCCC(F)(F)COc1cc(N2CCCN(Cc3ccc(CC(=O)N4CCCOCC4)cc3OC)C2=O)ccc1OC [CU0112] | – | 25.9 nM
– | 74.5 nM | CCCCCOc1cc(N2CCCN(Cc3ccccc3Cl)C2=O)ccc1OC [CU0010] | – | 34.9 nM
– | 2.1 nM | CCCCCOc1cc(N2CCCN(Cc3cccc4c3ccn4CC(=O)N3CCOCC3)C2=O)ccc1OC [CU0029] | – | 15 nM
> 500 µM | 1.2 nM | CCCCCOc1cc(N2CCCN(Cc3ccc(CC(=O)N[C@@H]4CNC[C@H]4F)cc3OC)C2=O)ccc1OC [CU0108] | – | 19.5 nM
– | 62 nM | CCCCCOc1cc(N2CCN(Cc3ccnc4c3ccn4CC(=O)N(C)C)C2=O)ccc1OC [CU0033] | – | 136 nM
– | 10.5 nM | CCCCCOc1cc(N2CCCN(Cc3cccc4c3ncn4CC(=O)N3CCN(C(C)=O)CC3)C2=O)ccc1OC [CU0063] | – | 28.3 nM
– | 10.3 nM | CCCCCOc1cc(N2CCCN(Cc3ccc(CC(=O)N4CCOCC4)cc3Cl)C2=O)ccc1OC [CU0116] | – | 23.2 nM
64 µM (≈ 33.3 µg/mL) | 0.9 nM | CCCCCOc1cc(N2CCCN(Cc3cccc4c3c(C)cn4CC(=O)N(C)C)C2=O)ccc1OC [CU0231] | – | 20.3 nM
– | 15.5 nM | CCCCCOc1cc(N2CCCN([C@@H](C)c3ccnc4c3ccn4CC(=O)N(C)C)C2=O)ccc1OC [CU0037] | – | 47.1 nM
295 µM (≈ 171 µg/mL) | 2 nM | CCCCCOc1cc(N2CCCN(Cc3ccc(CC(=O)NC4CCN(C(C)=O)C4)cc3OC)C2=O)ccc1OC (stereo not shown) [CU0110] | – | 16.4 nM
266 µM (≈ 154 µg/mL) | 2 nM | CCCCCOc1cc(N2CCCN(Cc3ccc(CC(=O)N4CC(=O)N(C)C(C)C4)cc3OC)C2=O)ccc1OC (stereo not shown) [CU0107] | – | 38 nM
– | 14 nM | COc1ccc(N2CCCN(Cc3cccc4c3ccn4CC(=O)N(C)C)C2=O)cc1OCCCC(C)(F)F [CU0027] | – | 22.5 nM
– | 83.5 nM | CCCCCOc1cc(N2CCN(Cc3cc(F)ccc3OC)C2=O)ccc1OC [CU0002] | – | 42 nM
> 500 µM | 1.1 nM | CCCCCOc1cc(N2CCCN(Cc3ccc(CC(=O)NC4CCN(C(C)C)CC4)cc3OC)C2=O)ccc1OC [CU0109] | – | 18.6 nM
– | 3.6 nM | CCCCCOc1cc(N2CCCN(Cc3ccc(Cc4nnco4)cc3OC)C2=O)ccc1OC [CU0120] | – | 11.8 nM

Compound | solubility kinetic [3] | Kd [4] | IC50 (Human C5 [1]) | IC50 (Human C5 [2])
CCCCCOc1cc(N2CCCN(Cc3ccc(CC(=O)N4CCCN(C)CC4)cc3OC)C2=O)ccc1OC [CU0104] | 269 µM (≈ 152 µg/mL) | 0.6 nM | – | 23.8 nM

Source: US20230115176A1 (Ra Pharmaceuticals, Inc., priority 2019, published 2023)
